Measured values from US8778401B2, “Mesoporous material excipients for poorly aqueous soluble ingredients” (Agency for Science, Technology and Research, priority 2008, dated 2014).

Assays:
Format in all cases: physicochemical
[1] = Dissolution test of ibuprofen formulations (USP dissolution tester, online UV); conditions: 900 mL 0.1N HCl at 37° C., 100 rpm
Description: The suspension was spray-dried in a Buchi Spray Drier B290. The inlet temperature was set to 81° C. and the outlet temperature was ˜50° C. The pump speed was set to “20”. […] Stirring speed is 100 rpm. Sample was taken by auto sampling system at interval of 5 min. UV reading was taken at wavelength 222 nm.
The dissolution profile was measured using VK7010 (Varian Co) USP dissolution tester with flow cell online UV-vis analysis system. Stirring rate is 100 rpm and vessel temperature is set at 37° C.
The dissolution is performed using the same method as in Example 1.

[2] = Dissolution of spray-dried indomethacin with SBA-15 in pH 6.8 phosphate buffer; conditions: 900 mL of pH 6.8 phosphate buffer
Description: FIG. 15 illustrates dissolution profiles of spray-dried indomethacin with SBA-15 in powder form and tablet form, and a comparison with raw indomethacin crystal. (900 mL of pH 6.8 phosphate buffer, 50 mg spray-dried indomethacin with SBA-15 in powder form or tablet with 800 mg cornstarch at 1 ton press, raw crystal form is 25 mg).

[3] = Storage stability of the amorphous form at 40° C./75% RH (XRD); conditions: same conditions (40° C./75% RH) for just one week
Description: The storage stability was tested in severe storage condition of 75% relative humidity and temperature of 40° C., denoted as 40° C./75% RH.
A broad peak at 2-θ of 15-30° is typical in diffraction patterns of X-ray amorphous silica.
The amorphous state of these drugs formed by spray drying with mesoporous materials is stable after being subject to stress conditions of 40° C./75% RH for at least six months.

SMILES: CC(C)Cc1ccc(C(C)C(=O)O)cc1 (stereo not shown) [pure ibuprofen crystal, ibuprofen]
- Dissolution test data 15 min ([1]; 25 mg ibuprofen or equivalent, 15 min): 17.5%
- Dissolution test data 30 min ([1]; 25 mg ibuprofen or equivalent, 30 min): 25.6%
- Dissolution test data 45 min ([1]; 25 mg ibuprofen or equivalent, 45 min): 35.6%
- dissolved in 15 min ([1]; powder form, 15 min): 17.5%
- dissolved within 15 min, tablet form ([1]; tablet with 0.8 g cornstarch, 1 ton press, 15 min): 16.4%

SMILES: COc1ccc2c(c1)c(CC(=O)O)c(C)n2C(=O)c1ccc(Cl)cc1 [commercial indomethacin, indomethacin]
- dissolution within 15 min [2]: 25%

SMILES: COc1ccc2c(c1)c(CC(=O)O)c(C)n2C(=O)c1ccc(Cl)cc1 [indomethacin]
- stability of amorphous form after storage [3]: re-crystallized
